Assay [1] relates to human pancreatic cancer cells MIA-Paca2. As to the kind of experiment: Tumor volume, MIA-Paca2/nude mice. The class given is in vivo. Here is the method: A tumor piece of human pancreatic cancer cells MIA-Paca2 containing cells positive for cancer stem cell markers was subcutaneously transplanted to the dorsal part of each of 6-week-old female BALB/cAJc1-nu nude mice (4 mice/group, 5 mice only for the control group) using a trocar needle. At the time when the tumor volume reached 100 to 200 mm^3, the administration was started. Am80 was orally administered once a day at a dose of 2 mg/kg for 21 continuous days, and DXL was intravenously administered at a dose of 5 mg/kg from Day 1, 3 times at intervals of 4 days. In the combination group, the agents were administered at the same doses as, and by the same administration methods as, those in the cases of administration of each single agent. Measurement of the tumor diameter was carried out until the next day of the completion of the administration (Day 22). Based on the measured values of the longitudinal diameter and the transverse diameter, the tumor volume (mm^3) was determined according to the following formula: longitudinal diameter×transverse diameter^2/2. In the control group, physiological saline was intraperitoneally administered from Day 1, 3 times at intervals of 4 days.

Assay [2] relates to human prostate cancer cell line LNCaP. Nature of the assay: Tumor volume, LNCaP/nude mice. Format: in vivo. Here is the method:
(§1) A tumor piece of a human prostate cancer cell line LNCaP containing cells positive for cancer stem cell markers was subcutaneously transplanted to the dorsal part of each of 6-week-old female BALB/cAJc1-nu nude mice (4 mice/group) using a trocar needle. At the time when the tumor volume reached 100 to 200 mm^3, the administration was started. Am80 was orally administered once a day at a dose of 1 mg/kg for 21 continuous days, and DXL was intravenously administered at a dose of 5 mg/kg from Day 1, 3 times at intervals of 4 days. In the combination group, the agents were administered at the same doses as, and by the same administration methods as, those in the cases of administration of each single agent. Measurement of the tumor diameter was carried out until the next day of the completion of the administration (Day 22). The longitudinal diameter and the transverse diameter of the tumor were measured using a caliper, and the tumor volume (mm^3) was determined according to the following formula: longitudinal diameter×transverse diameter^2/2. In the control group, physiological saline was intraperitoneally administered from Day 1, 3 times at intervals of 4 days.

Assay [3] shares this test system. As to the kind of experiment: Growth inhibition of LNCaP in vitro. Format: cell-based. As to conditions: Homo sapiens, 96 hours of exposure, RPMI1640 with 10% FBS. Here is the method: A human prostate cancer cell line LNCaP, containing cells positive for cancer stem cell markers, was cultured in RPMI1640 medium supplemented with 10% FBS, and the growth inhibitory action by the combination of Am80 and 5-AZ was studied. […] Thus, in order to study the growth inhibitory action, Am80 was used within the concentration range of 0.125 μM to 1 μM with a common ratio of 2, and 5-AZ was used within the concentration range of 1.56 μM to 12.5 μM with a common ratio of 2. In cases of use of these agents in combination, the growth inhibitory action was studied using these concentrations.

Assay [4] concerns Pdx1, glucagon gene expression in human pancreatic cancer cell spheroids. As to the kind of experiment: Quantitative RT-PCR of pancreatic tissue differentiation markers. Format: cell-based. Particulars: suspension culture with Am80 for 1 week. Here is the method: Subsequently, total RNA was extracted from pancreatic cancer cells prepared by performing suspension culture in the presence of Am80 for 1 week, and quantitative RT-PCR was carried out using primers specific to pancreatic tissue-specific differentiation markers.

Assay [5] relates to human breast cancer cell line MCF-7. As to the kind of experiment: Tumor volume, MCF-7/nude mice. The class given is in vivo. Here is the method:
as §1, with “breast” for “prostate”, “MCF-7” for “LNCaP”, “(5” for “(4”, “3.5” for “5”

pIC50: −log10 of the molar value.

One may read the pIC50 as the negative decadic logarithm of the IC50, by convention in mol/L.

For the molecule `CC1(C)CCC(C)(C)c2cc(NC(=O)c3ccc(C(=O)O)cc3)ccc21` [Am80, tamibarotene], the “tumor volume Day 1” value came out at 151.3 mm^3 in assay [1] (Am80 2 mg/kg oral daily 21 days, DXL 5 mg/kg i.v. 3 times at intervals of 4 days, Day 1); 121.3 mm^3 in assay [2] (Am80 1 mg/kg oral daily 21 days, DXL 5 mg/kg i.v. 3 times at intervals of 4 days, Day 1); 155.3 mm^3 in assay [5] (Am80 1 mg/kg oral daily 21 days, DXL 3.5 mg/kg i.v. 3 times at intervals of 4 days, Day 1). For the same molecule, the “tumor volume Day 5” value in assay [1] (Am80 2 mg/kg oral daily, DXL 5 mg/kg i.v., Day 5) is on record as 182.1 mm^3; in assay [2] (Am80 1 mg/kg oral daily, DXL 5 mg/kg i.v., Day 5), 162.1 mm^3; in assay [5] (Am80 1 mg/kg oral daily, DXL 3.5 mg/kg i.v., Day 5), 151.3 mm^3. In addition, the “tumor volume Day 9” value in assay [1] (Am80 2 mg/kg oral daily, DXL 5 mg/kg i.v., Day 9) is recorded as 255.5 mm^3; in assay [2] (Am80 1 mg/kg oral daily, DXL 5 mg/kg i.v., Day 9) it was 205.8 mm^3; in assay [5] (Am80 1 mg/kg oral daily, DXL 3.5 mg/kg i.v., Day 9) it was 155.5 mm^3. Further, the “tumor volume Day 13” value was 348.8 mm^3 in assay [1] (Am80 2 mg/kg oral daily, DXL 5 mg/kg i.v., Day 13); 282.8 mm^3 in assay [2] (Am80 1 mg/kg oral daily, DXL 5 mg/kg i.v., Day 13); 208.9 mm^3 in assay [5] (Am80 1 mg/kg oral daily, DXL 3.5 mg/kg i.v., Day 13). The “tumor volume Day 17” value in assay [1] (Am80 2 mg/kg oral daily, DXL 5 mg/kg i.v., Day 17) is on record as 429.9 mm^3; in assay [2] (Am80 1 mg/kg oral daily, DXL 5 mg/kg i.v., Day 17) it was 409.9 mm^3; in assay [5] (Am80 1 mg/kg oral daily, DXL 3.5 mg/kg i.v., Day 17) it was 229.4 mm^3. Also, the “tumor volume Day 22” value came to 466.4 mm^3 in assay [1] (Am80 2 mg/kg oral daily, DXL 5 mg/kg i.v., Day 22); 436.3 mm^3 in assay [2] (Am80 1 mg/kg oral daily, DXL 5 mg/kg i.v., Day 22); 261.4 mm^3 in assay [5] (Am80 1 mg/kg oral daily, DXL 3.5 mg/kg i.v., Day 22). For the same molecule, in assay [3], the pIC50 is 5.70. Further, the “gene expression of Pdx1, glucagon and the like” value in assay [4] was “increased gene expression dependently on the Am80 concentration”.
